Measurements published in US20060089400A1, “Novel spiro ketone and carboxylic acid derivatives as specific inhibitors for (po3h2) ser/(po3h2)thr-pro-specific peptidyl-prolylcis/trans-isomerases” (The Vernalis Group of Companies, priority 2002, published 2006).

Target: T1, human Pin1 (recombinant from E. coli) (Homo sapiens, UniProt Q13526)
T1 construct: made in house; host or cells: E. coli
Experiment: protease-coupled PPIase assay, inhibition of hPin1
Format: biochemical
Details: protease-coupled PPlase assay; substrate Ac-Ala-Ala-(PO3H2)Ser-Pro-Arg-(4-)nitroanilide; trypsin; 2 nM enzyme; 35 mM HEPES pH 7.8; 10° C.; 5 min preincubation; read-out: hPin1-inhibition K1
Text: As described in example 1, the peptidyl-prolyl-cis/trans-isomerase activity can be determined in the so-called protease coupled PPlase assay with the help of isomer-specific proteolysis and the suitable oligopeptide substrates and isomer-specific proteases. Other processes for the detection of PPlase activity are e.g. observing isomer-specific differences with respect to spectroscopic properties, their mobilities or the foldback catalysis of other proteins as well as isomer-specific chemical compounds when recording core resonance spectra.
If adding active components to one of the test systems listed above leads to a measurable decrease in the reaction speed catalysed by the respective PPlase, these active components are classed PPlase inhibitors, as is exemplarily shown in example 1. Assessment of the PPlase specificity of the inhibitor is carried out by testing different PPlases in the assay. By varying the concentration of the inhibitor and assessing the results measured with conventional processes, the corresponding inhibition constant (KI-value) can be determined. The concentration of the inhibitor which inhibits the PPlase-induced catalysis by 50% is called IC50-value.
Determining the inhibition constants of the selected compound according to the invention 1′,2′,3′H-spiro[indene-3′,3-(3H-5-methoxy-benzofurane-2-one)] vis-à-vis the PPlase hPinl by protease-coupled PPlase assay: • Buffer: 35 mM HEPES (pH 7.8), 1,200 μl • Substrate: Ac-Ala-Ala-(PO3H2)Ser-Pro-Arg-(4-)nitroanilide stock solution 10 mg/ml in 35 mM Hepes (pH 7.8), • Auxiliary protease: trypsin (Roth), stock solution 10 mg/ml in 35 mM Hepes (ph 7.8), concentration in the solution for measuring 0.34 mg/ml • Enzyme: human Pin1 (recombinant from E. coli), stock solution 0.55 μM, concentration in the solution for measuring: 2 nM • Effectors: effector stock solution 10 mM in DMSO, concentration in the solution for measuring between 1,000 and 0.01 μM • Temperature: 10° C.
In the incubation solution, the effectors were preincubated with the enzyme for 5 min, then 3.5 μl of the auxiliary protease trypsin were added and the reaction was started immediately afterwards by adding 3.5 μl substrate. The reaction was monitored at a wave length of 390 nm with the measuring instrument Hewlett Packard UVNIS spectrophotometer HP 8452A. The kinetic analysis of the data was carried out by “SigmaPlot” (Scientific Graphing System Vers. 2.0, Jandel Corp.).

T1 sequence (Q13526 whole entry): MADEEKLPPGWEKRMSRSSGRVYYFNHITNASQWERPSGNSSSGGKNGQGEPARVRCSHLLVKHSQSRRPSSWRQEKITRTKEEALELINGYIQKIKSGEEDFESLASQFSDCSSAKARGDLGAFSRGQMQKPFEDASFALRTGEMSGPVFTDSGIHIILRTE

Structure (SMILES)	Ki [µM]
COC(=O)C1(c2ccccc2O)CCc2ccccc21 (stereo not drawn)	27
COc1ccc2c(c1)C1(CCc3ccccc31)C(=O)O2 (stereo not drawn) [1′,2′,3′H-spiro[indene-3′,3-(3H-5-methoxy-benzofurane-2-one)]]	6
COc1ccc2c(c1)C1(CC(C)c3ccccc31)C(=O)O2 (stereo not drawn) [1′,2′,3′H-sprio[1′-methyl-indene-3′,3-(3H-5-methoxy-benzofurane-2-one)]]	20

Next, values leading:

Ki [µM]	Structure (SMILES)
50	COc1ccc(OC)c(C(=O)C2CCc3ccccc32)c1 (stereo not drawn) [1-(2,5-dimethoxyphenyl)-1′-indane-1′-1-methanone]
150	O=C1Oc2ccccc2C12CC=CC2 [1′,2′,3′H-spiro[cyclopentene-3′,3-(3H-benzofurane-2-one)]]
7	O=C1Oc2ccccc2C12Cc1ccccc1C2 [1′,2′,3′H-sprio[indene-2′,3-(3H-benzofurane-2-one)]]
